Each block holds one molecule with its values, some of them ahead of it.
Experiments:
[1] = system: intraocular pressure; experiment: Intraocular pressure reducing action (Test Example 4); type: in vivo, Japanese white rabbit; conditions: rabbit, 50 μl of aqueous solution dropped to the left eye
Experimental: A Japanese white rabbit having a body weight of about 2 kg was placed in a positioner and naturalized for one week before the experiment. An ophthalmologic local anesthesant (Benoxil) was administered to the left eye, and then intraocular pressure was measured by using a tonometer (Classic 30, Solan). The initial value of the intraocular pressure was measured, then 50 μl of an aqueous solution of a test compound was dropped to the left eye at various concentrations, and the intraocular pressure was measured with passage of time.

[2] = system: ovalbumin-induced constriction of respiratory tract; experiment: Respiratory tract constriction suppressing action, intravenous administration (Test Example 3); type: in vivo, Hartley guinea pigs; conditions: ovalbumin-immunized guinea pigs, administered from cannula in hind leg vein, measured for 15 minutes
Experimental: Four-week old Hartley guinea pigs (male) were immunized by intraperitoneal administration of ovalbumin (Sigma, Grade V) in amounts of 1 mg for each animal on the day on which the experiment was started, 3 mg for each animal after 2 days, and 10 mg for each animal after 4 days. Twelve to fourteen days after the final immunization, the ovalbumin-immunized guinea pigs were anesthetized by intraperitoneal administration of about 40 mg/kg of pentobarbital (Somnopentyl), and the tracheas were taken out. Subsequently, a cannula (SP-110, Natsume) was inserted into each trachea, and one end of the cannula was connected to an artificial respirator (Model-b83, Harvard). The aeration conditions were set at 6 ml per kilogram and 60 times per 1 minute. Further, a cannula for medicament administration (JMS wing needle 23G 3/4) was inserted into a hind leg vein. Myoblock (Organon Technica) was administered in an amount of 0.5 mg/kg from the cannula inserted into the hind leg vein to stop the spontaneous breathing, and after 2 or 3 minutes, 0.3 mg/kg of ovalbumin was administered to induce constriction of respiratory tract. The increase of airway resistance value 2 minutes after the induction (measurement apparatuses: pressure transducer TR-603T, respiratory amplifier AR-601G, and recorder RTA-3100, Nihon Kohden Corp.) was confirmed to be above 80 cm H2O or higher, and then, a solution of a test medicament was administered from the cannula inserted into the hind leg vein, and the airway resistance value was continuously measured for 15 minutes after the administration to determine the effect.

[3] = system: ovalbumin-induced constriction of respiratory tract; experiment: Respiratory tract constriction suppressing action, administration by inhalation (Test Example 3); type: in vivo, Hartley guinea pigs; conditions: ovalbumin-immunized guinea pigs, 2 ml solution by inhalation over 5 minutes
Experimental: Four-week old Hartley guinea pigs (male) were immunized by intraperitoneal administration of ovalbumin (Sigma, Grade V) in amounts of 1 mg for each animal on the day on which the experiment was started, 3 mg for each animal after 2 days, and 10 mg for each animal after 4 days. Further, the respiratory tract constriction suppression action of the test compounds was also evaluated by inhalation. Twelve to fourteen days after the final sensitization, 10 mg/kg of pyrilamine (Sigma), 5 mg/kg of indomethacin (Wako), or 0.1 mg/kg of propranolol (Sigma) was intraperitoneally administered. Then, 30 minutes after the administration, a 0.1% ovalbumin aqueous solution was inhaled by using a pressurization type nebulizer (PARI-IS2) to induce constriction of the respiratory tract. Ten minutes after the induction, 2 ml of a solution of a test compound prepared at various concentrations was filled in the aforementioned nebulizer, and administered by inhalation over 5 minutes. After the administration of pyrilamine and other drugs, airway resistance value was continuously measured to determine effectiveness.

[4] = system: phosphorylated myosin regulatory light chain in neutrophils; experiment: Action on amount of phosphorylated myosin regulatory light chain in the cells (Test Example 1); type: cell-based; conditions: Neutrophil, 5 min; human neutrophils, reaction at 25° C. for 5 minutes; read-out: concentration at which the phosphorylation of myosin regulatory light chain is inhibited (IC50)
Experimental: A volume of 50 to 100 ml of peripheral blood collected from healthy volunteers was centrifuged by using Mono-Poly separator solution (Dainippon Pharmaceutical) to prepare a neutrophil containing fraction. The neutrophils were washed with PBS(−) and resuspended in Hanks' Balanced Salt Solution (HBSS+, Gibco) to prepare a cell suspension (8×10^6/ml). The cell suspension was diluted to 5×10^6/ml, introduced into Eppendorf tubes in a volume of 0.4 ml each, then 0.1 ml each of solutions of a test compound at various concentrations were added to the suspension and allowed to react at 25° C. for 5 minutes. After the reaction, 0.1 ml of trichloroacetic acid solution was added to each reaction, the reaction mixture was gently shaken and centrifuged at 12,000 rpm (4° C., 5 minutes), and the supernatant was removed. Subsequently, 3 μl of 1 M Tris solution was added to the residue, the mixture was further mixed with 50 μl of extraction buffer (8 M urea, 0.02% 2-mercaptoethanol, 0.002% bromophenol blue) and left stand at room temperature for 1 hour. Then, the reaction mixture was loaded on a spin column (0.45 μm, Millipore) to remove the insoluble solids and a sample buffer for SDS polyacrylamide gel electrophoresis (25 mM, Tris-HCl pH 6.8, 2.5% 2-mercaptoethanol, 2% sodium dodecylsulfate, 5% sucrose, 0.002% bromophenol blue as final concentrations) was added, and 10 μl of each sample was subjected to electrophoresis.
The gel after the electrophoresis was blotted on a nitrocellulose membrane (BioRad), blocked with 5% skim milk, and reacted successively with antibodies pLC1 (Sakurada K. et al, Am. J. Physiol., 274, C1563–C1572 (1998)), which specifically recognize the phosphorylated myosin regulatory light chain, and donkey anti-mouse IgG (Chemicon) conjugated with horseradish peroxidase. The band of the phosphorylated myosin regulatory light chain was detected on a film by using ECL Plus Kit (Amersham Pharmacia Biotech). This band was subjected to quantification using a densitometer. By using this value, the inhibitory ratio (%) for phosphorylation of the myosin regulatory light chain was calculated by using the following equation. Phosphorylation inhibition ratio (%)=1−(Band intensity of phosphorylated myosin regulatory light chain with addition of the test compound/Band intensity of phosphorylated myosin regulatory light chain without addition of the test compound)×100
Further, the phosphorylation inhibition ratio was calculated with changing the concentrations of the test compound, and a compound concentration providing an inhibition ratio of 50% was obtained as IC50.

SMILES: CCC(=O)NCCN[C@H]1CC[C@H](N2CCc3cnc(O)c4cccc2c34)CC1.Cl [Example 83]
- intraocular pressure reducing action [1]: significant intraocular pressure reducing action

SMILES: CC(=O)NCCCN[C@H]1CC[C@H](N2CCc3cnc(O)c4cccc2c34)CC1.Cl [Example 87]
- intraocular pressure reducing action [1]: significant intraocular pressure reducing action

SMILES: Cl.NCCN1CCC(N2CCc3cncc4cccc2c34)CC1 [Example 14]
- improvement of constriction of respiratory tract (airway resistance value) [2]: significantly improved the constriction of respiratory tract
- improvement of constriction of respiratory tract (airway resistance value) [3]: significantly improved the constriction of respiratory tract
- intraocular pressure reducing action [1]: significant intraocular pressure reducing action

SMILES: N[C@H]1CC[C@H](N2CCc3cnc(O)c4cccc2c34)CC1 [Example 77]
- intraocular pressure reducing action [1]: significant intraocular pressure reducing action

SMILES: Cl.OCCN1CCC(N2CCc3cncc4cccc2c34)CC1 [Example 12]
- intraocular pressure reducing action [1]: significant intraocular pressure reducing action

SMILES: Cl.OCCCN1CCC(N2CCc3cnc(O)c4cccc2c34)CC1 [Example 64]
- intraocular pressure reducing action [1]: significant intraocular pressure reducing action

- IC50 [4]: ≤ 40 µM
SMILES: Clc1ncc2c3c(cccc13)N(C1CCNCC1)CC2 [Example 61, 6-Chloro-1-(piperidin-4-yl)-2,3-dihydro-1H-1,5-diazaphenalene]

SMILES: Cl.N#CCN1CCC(N2CCc3cncc4cccc2c34)CC1 [Example 18]
- intraocular pressure reducing action [1]: significant intraocular pressure reducing action

SMILES: CN1CCC(N2CCc3cncc4cccc2c34)CC1 [Example 52]
- intraocular pressure reducing action [1]: significant intraocular pressure reducing action

SMILES: CC(=O)NCCN1CCC(N2CCc3cnc(O)c4cccc2c34)CC1 [Example 67]
- intraocular pressure reducing action [1]: significant intraocular pressure reducing action

SMILES: Cl.Oc1ncc2c3c(cccc13)N(C1CCNCC1)CC2 [Example 62]
- intraocular pressure reducing action [1]: significant intraocular pressure reducing action

SMILES: Cl.c1cc2c3c(cncc3c1)CCN2C1CCNCC1 [Example 11]
- improvement of constriction of respiratory tract (airway resistance value) [2]: significantly improved the constriction of respiratory tract
- improvement of constriction of respiratory tract (airway resistance value) [3]: significantly improved the constriction of respiratory tract
- intraocular pressure reducing action [1]: significant intraocular pressure reducing action

SMILES: CC(=O)NCCN[C@H]1CC[C@H](N2CCc3cnc(O)c4cccc2c34)CC1.Cl [Example 82]
- intraocular pressure reducing action [1]: significant intraocular pressure reducing action

SMILES: Cl.OCCN[C@H]1CC[C@H](N2CCc3cnc(O)c4cccc2c34)CC1 [Example 78]
- intraocular pressure reducing action [1]: significant intraocular pressure reducing action

SMILES: CCC(=O)NCCN1CCC(N2CCc3cnc(O)c4cccc2c34)CC1 [Example 68]
- intraocular pressure reducing action [1]: significant intraocular pressure reducing action

SMILES: CCC(=O)NCCCN[C@H]1CC[C@H](N2CCc3cnc(O)c4cccc2c34)CC1.Cl [Example 88]
- intraocular pressure reducing action [1]: significant intraocular pressure reducing action

SMILES: CCC(=O)NCCCN1CCC(N2CCc3cnc(O)c4cccc2c34)CC1 [Example 73]
- intraocular pressure reducing action [1]: significant intraocular pressure reducing action

SMILES: CCCC(=O)NCCN[C@H]1CC[C@H](N2CCc3cnc(O)c4cccc2c34)CC1.Cl [Example 84]
- intraocular pressure reducing action [1]: significant intraocular pressure reducing action

SMILES: Cl.OCCCN[C@H]1CC[C@H](N2CCc3cnc(O)c4cccc2c34)CC1 [Example 79]
- intraocular pressure reducing action [1]: significant intraocular pressure reducing action

SMILES: Cl.NCCCN1CCC(N2CCc3cncc4cccc2c34)CC1 [Example 15]
- improvement of constriction of respiratory tract (airway resistance value) [2]: significantly improved the constriction of respiratory tract
- improvement of constriction of respiratory tract (airway resistance value) [3]: significantly improved the constriction of respiratory tract
- intraocular pressure reducing action [1]: significant intraocular pressure reducing action

SMILES: Cl.OCCCN1CCC(N2CCc3cncc4cccc2c34)CC1 [Example 13]
- intraocular pressure reducing action [1]: significant intraocular pressure reducing action

SMILES: Cl.N[C@H]1CC[C@@H](N2CCc3cncc4cccc2c34)CC1 [Example 31]
- intraocular pressure reducing action [1]: significant intraocular pressure reducing action

SMILES: CNCCN1CCC(N2CCc3cncc4cccc2c34)CC1 [Example 57]
- intraocular pressure reducing action [1]: significant intraocular pressure reducing action

SMILES: CC(=O)NCCCN1CCC(N2CCc3cncc4cccc2c34)CC1 [Example 47]
- intraocular pressure reducing action [1]: significant intraocular pressure reducing action

SMILES: CC(=O)NCCCN1CCC(N2CCc3cnc(O)c4cccc2c34)CC1 [Example 72]
- intraocular pressure reducing action [1]: significant intraocular pressure reducing action

SMILES: Cl.N[C@H]1CC[C@H](N2CCc3cncc4cccc2c34)CC1 [Example 21]
- intraocular pressure reducing action [1]: significant intraocular pressure reducing action

SMILES: Cl.OCCN[C@H]1CC[C@H](N2CCc3cncc4cccc2c34)CC1 [Example 22]
- intraocular pressure reducing action [1]: significant intraocular pressure reducing action

SMILES: Cl.OCCN1CCC(N2CCc3cnc(O)c4cccc2c34)CC1 [Example 63]
- intraocular pressure reducing action [1]: significant intraocular pressure reducing action

SMILES: CC(C)(C)C(=O)NCCCN1CCC(N2CCc3cnc(O)c4cccc2c34)CC1 [Example 76]
- intraocular pressure reducing action [1]: significant intraocular pressure reducing action

SMILES: Cl.c1cc2c3c(cncc3c1)CCN2C1CCNC1 (stereo not drawn) [Example 1]
- intraocular pressure reducing action [1]: significant intraocular pressure reducing action
